From ChEMBL document CHEMBL1130506, “Inhibition of the her2 tyrosine kinase and characterization of a hydrophobic site near the nucleotide binding domain” (Bioorg Med Chem Lett, 1997)

Target: Receptor tyrosine-protein kinase erbB-2 (Homo sapiens, UniProt P04626)
Test: Inhibition of autophosphorylation of HER-2 expressed in NIH3T3 cell lines
Format: cell-based

Receptor tyrosine-protein kinase erbB-2, sequence (P04626 whole entry): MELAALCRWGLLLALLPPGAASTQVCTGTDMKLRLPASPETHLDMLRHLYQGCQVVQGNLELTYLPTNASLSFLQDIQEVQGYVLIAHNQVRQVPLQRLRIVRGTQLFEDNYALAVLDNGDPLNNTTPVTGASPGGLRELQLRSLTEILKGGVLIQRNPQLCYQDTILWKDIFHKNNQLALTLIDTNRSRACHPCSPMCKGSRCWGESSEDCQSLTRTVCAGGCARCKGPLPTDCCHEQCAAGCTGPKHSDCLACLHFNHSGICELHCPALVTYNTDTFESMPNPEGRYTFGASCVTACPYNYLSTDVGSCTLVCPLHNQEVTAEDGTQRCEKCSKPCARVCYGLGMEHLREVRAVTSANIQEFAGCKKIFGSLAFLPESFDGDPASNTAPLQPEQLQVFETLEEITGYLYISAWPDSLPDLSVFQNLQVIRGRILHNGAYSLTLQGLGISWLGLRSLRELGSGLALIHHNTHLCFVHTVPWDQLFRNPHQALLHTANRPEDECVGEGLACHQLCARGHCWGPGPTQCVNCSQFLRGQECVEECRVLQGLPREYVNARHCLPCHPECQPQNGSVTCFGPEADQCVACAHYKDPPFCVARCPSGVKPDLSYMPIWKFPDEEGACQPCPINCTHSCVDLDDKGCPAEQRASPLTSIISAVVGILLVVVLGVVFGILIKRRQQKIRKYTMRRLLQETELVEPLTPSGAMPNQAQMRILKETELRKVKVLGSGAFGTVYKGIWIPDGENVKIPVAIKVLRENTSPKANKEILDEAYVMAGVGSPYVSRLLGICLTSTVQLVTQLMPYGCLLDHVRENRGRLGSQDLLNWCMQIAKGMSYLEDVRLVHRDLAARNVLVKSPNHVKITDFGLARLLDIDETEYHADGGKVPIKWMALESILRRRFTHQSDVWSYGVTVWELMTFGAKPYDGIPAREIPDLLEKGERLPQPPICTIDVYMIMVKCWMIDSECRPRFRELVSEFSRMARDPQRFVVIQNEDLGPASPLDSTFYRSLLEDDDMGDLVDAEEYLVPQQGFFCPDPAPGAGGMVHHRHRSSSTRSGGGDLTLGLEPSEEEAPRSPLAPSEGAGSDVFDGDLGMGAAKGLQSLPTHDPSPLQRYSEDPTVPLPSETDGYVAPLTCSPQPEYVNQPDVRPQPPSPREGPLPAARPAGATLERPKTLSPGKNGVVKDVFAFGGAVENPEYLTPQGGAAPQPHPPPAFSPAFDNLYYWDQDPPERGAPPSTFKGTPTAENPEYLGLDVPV

| IC50 | SMILES |
| --- | --- |
| 3.8 µM | O=C(CCCC(=O)Oc1ccc(/C=C/[N+](=O)[O-])cc1)OCc1ccco1 |
| 4.4 µM | O=C(CCCC(=O)Oc1ccc(/C=C/[N+](=O)[O-])cc1)Oc1ccccc1 |
| 4.5 µM | CC(C)O[C@@H]1[C@H](OC(C)C)[C@@H](COC(=O)CCCC(=O)Oc2ccc(/C=C/[N+](=O)[O-])cc2)O[C@H]1n1cnc2c(N)ncnc21 |
| 6.6 µM | COc1ccc(OC(=O)CCCC(=O)Oc2ccc(/C=C/[N+](=O)[O-])cc2)cc1 |
